Here are results for 1 molecule from publication PMC2954458 (Biochemistry, 2010).

This assay has as its target Pdr5 (Saccharomyces cerevisiae, UniProt P33302). Description: ATPase assay, purified plasma membrane vesicles, Δpdr5 background subtracted. It counts as biochemical. As to conditions: 100 mM MOPS pH 7.4, 50 mM KCl, 10 mM MgCl2, 5 mM NaN3, 35 °C.

Pdr5, sequence (P33302 whole entry): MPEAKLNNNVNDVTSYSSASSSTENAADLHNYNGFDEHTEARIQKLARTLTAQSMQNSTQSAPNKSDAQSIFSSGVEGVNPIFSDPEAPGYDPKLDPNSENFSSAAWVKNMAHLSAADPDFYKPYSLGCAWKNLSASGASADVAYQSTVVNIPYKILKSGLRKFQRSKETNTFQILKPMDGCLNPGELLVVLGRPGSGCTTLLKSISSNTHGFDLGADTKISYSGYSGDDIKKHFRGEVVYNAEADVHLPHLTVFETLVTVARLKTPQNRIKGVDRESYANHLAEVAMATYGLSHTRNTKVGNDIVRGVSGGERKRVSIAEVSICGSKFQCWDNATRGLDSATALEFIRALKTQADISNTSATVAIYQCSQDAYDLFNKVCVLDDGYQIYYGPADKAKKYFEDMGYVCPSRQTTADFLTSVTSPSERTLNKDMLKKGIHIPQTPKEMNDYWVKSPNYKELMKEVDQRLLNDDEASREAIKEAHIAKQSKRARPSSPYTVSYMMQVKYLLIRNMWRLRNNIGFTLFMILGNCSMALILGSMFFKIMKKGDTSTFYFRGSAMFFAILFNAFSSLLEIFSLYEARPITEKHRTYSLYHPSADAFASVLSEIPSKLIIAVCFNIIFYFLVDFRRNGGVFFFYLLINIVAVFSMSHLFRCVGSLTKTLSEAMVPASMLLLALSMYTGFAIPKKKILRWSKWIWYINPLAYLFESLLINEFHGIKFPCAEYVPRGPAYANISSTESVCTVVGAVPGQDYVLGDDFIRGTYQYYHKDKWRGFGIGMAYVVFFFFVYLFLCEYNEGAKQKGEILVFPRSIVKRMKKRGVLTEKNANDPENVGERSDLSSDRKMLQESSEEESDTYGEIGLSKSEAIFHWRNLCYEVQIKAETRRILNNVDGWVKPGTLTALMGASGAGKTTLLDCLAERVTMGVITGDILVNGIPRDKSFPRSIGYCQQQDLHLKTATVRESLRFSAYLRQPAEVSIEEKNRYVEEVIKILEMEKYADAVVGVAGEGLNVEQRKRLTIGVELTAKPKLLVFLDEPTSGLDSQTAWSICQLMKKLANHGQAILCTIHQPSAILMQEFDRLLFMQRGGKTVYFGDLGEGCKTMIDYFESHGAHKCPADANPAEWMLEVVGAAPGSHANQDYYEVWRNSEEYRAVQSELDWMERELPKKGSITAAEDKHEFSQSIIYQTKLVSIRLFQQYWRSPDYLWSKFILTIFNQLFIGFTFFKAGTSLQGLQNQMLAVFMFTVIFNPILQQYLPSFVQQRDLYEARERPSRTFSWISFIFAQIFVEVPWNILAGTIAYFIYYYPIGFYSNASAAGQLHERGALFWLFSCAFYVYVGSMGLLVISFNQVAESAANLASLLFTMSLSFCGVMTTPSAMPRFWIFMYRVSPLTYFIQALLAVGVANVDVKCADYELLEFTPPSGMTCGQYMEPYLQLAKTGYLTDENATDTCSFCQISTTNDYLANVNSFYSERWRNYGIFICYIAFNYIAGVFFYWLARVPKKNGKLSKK

On to `Nc1ncnc2c1ncn2[C@@H]1O[C@H](COP(=O)(O)OP(=O)(O)OP(=O)(O)O)[C@@H](O)[C@H]1O` [ATP], for which the Km entry is reported as “There was little or no difference in the observed Kms”.
